# Measurements published in patent publication US20260256792A1, “TREATMENT OF CHRONIC SPONTANEOUS URTICARIA BY ADMINISTERING (R)-2-[3-[4-AMINO-3-(2-FLUORO-4-PHENOXY-PHENYL)PYRAZOLO[3,4-D]PYRIMIDIN-1-YL]PIPERIDINE-1-CARBONYL]-4-METHYL-4-[4-(OXETAN-3-YL)PIPERAZIN-1-YL]PENT-2-ENENITRILE” (priority 2023, published 2026).
# Test system: moderate-to-severe chronic spontaneous urticaria (CSU)
# Assay: Phase 2 CSU study: urticaria activity score over 7 days (UAS7)
# Type: in vivo, human
# Design: key to UAS7 Median / UAS7 Change from baseline Median / UAS7 change from baseline, Q1 / UAS7 change from baseline, Q3 / UAS7 change from baseline, Max / UAS7 Change from baseline LS Mean (SE): UAS7 points; daily UAS score ranges 0–6 points/day, over 7 days
# From the text: The study comprises a 12 week, randomized, double-blind, placebo-controlled, multi-center, dose-ranging efficacy and safety phase, followed by a 40 week open label extension (OLE) phase (see FIG. 1). The study consists of three phases and an optional OLE phase. […] Clinically, CSU is characterized by the spontaneous and recurrent appearance of pruritic hives. The proposed primary endpoints were the UAS7 at Week 12 in EU and EU reference countries and the ISS7 in the US. Regardless of where a participant was from, all assessments were the same. The UAS7 score is a composite score containing both the HSS7 and the ISS7. This allowed a global assessment of the two key components of urticaria: hives and itch. […] The UAS is a validated PRO measure. […] The daily UAS scores range from 0 to 6 point/day. […] Patients were to complete the UAS using the e-diary. […] The following secondary endpoints were to be analyzed using the same approach as for the primary endpoint: • Change from baseline in UAS7 at Week 4 • Change from baseline in UAS7 at Week 12 (for US and US reference countries) • Change from baseline in ISS7 at Week 12 (except US and US reference countries) • Change from baseline in HSS7 at Week 12 The following responder secondary endpoints were to be analyzed using the Cochran-Mantel-Haenszel test adjusted by region: • Proportion of participants with UAS7<6 at Week 12 • Proportion of participants with UAS7=0 at Week 12 Participants who received selected prohibited medications and/or rescue medications were to be considered as non-responders for time points after the medication usage. For other participants, all available data including those collected during the off-treatment period were to be used to determine the responder/non-responder status. Missing data were to be considered as non-responders.
# [1] = Week 7, 400 mg BID, Prior Omalizumab Use
# [2] = Week 7, 400 mg BID, omalizumab-naive participants
# [3] = Week 7, 400 mg QPM, ITT population
# [4] = Week 7, 400 mg QPM, Omalizumab-Naïve
# [5] = Week 7, 400 mg QPM, Prior Omalizumab Use
# [6] = Week 7, 400 mg QPM, omalizumab-naive participants
# [7] = Week 7, 400 mg TID, ITT population
# [8] = Week 7, 400 mg TID, Omalizumab-Naïve
# [9] = Week 7, 400 mg TID, Prior Omalizumab Use
# [10] = Week 7, 400 mg TID, omalizumab-naive participants
# [11] = Week 8, 400 mg BID, ITT population
# [12] = Week 8, 400 mg BID, Omalizumab-Naïve
# [13] = Week 8, 400 mg BID, Prior Omalizumab Use
# [14] = Week 8, 400 mg BID, omalizumab-naive participants
smiles,measurement,setting,value
"CC(C)(C=C(C#N)C(=O)N1CCC[C@@H](n2nc(-c3ccc(Oc4ccccc4)cc3F)c3c(N)ncnc32)C1)N1CCN(C2COC2)CC1 [rilzabrutinib, (R)-2-[3-[4-amino-3-(2-fluoro-4-phenoxy-phenyl)pyrazolo[3,4-d]pyrimidin-1-yl]piperidine-1-carbonyl]-4-methyl-4-[4-(oxetan-3-yl)piperazin-1-yl]pent-2-enenitrile]",UAS7 Percent change from baseline Median,"Week 7, 400 mg BID, Omalizumab-Naïve",−48.28%
same,UAS7 Change from baseline Mean (SD),[1],−20.40 (19.58)
same,UAS7 Change from baseline Median,[1],−25.00
same,UAS7 Mean (SD),[1],11.60 (15.79)
same,UAS7 Median,[1],2.00
same,UAS7 Percent change from baseline Mean (SD),[1],−58.52 (53.51) %
same,UAS7 Percent change from baseline Median,[1],−92.59%
same,"Non-responder, UAS7 reduction from baseline of 10 points or more",[2],15 (42.9) n (%)
same,"OR for rilzabrutinib vs. placebo, UAS7 reduction of 10 points or more",[2],2.154
same,"RRD (%) for rilzabrutinib vs. placebo, UAS7 reduction of 10 points or more",[2],18.5 %
same,"Responder, UAS7 reduction from baseline of 10 points or more",[2],20 (57.1) n (%)
same,"Non-responder, UAS7 reduction from baseline of 10 points or more",[3],22 (57.9) n (%)
same,"OR for rilzabrutinib vs. placebo, UAS7 reduction of 10 points or more",[3],1.159
same,"RRD (%) for rilzabrutinib vs. placebo, UAS7 reduction of 10 points or more",[3],3.5 %
same,"Responder, UAS7 reduction from baseline of 10 points or more",[3],16 (42.1) n (%)
same,UAS7 Change from baseline Mean (SD),[4],−10.92 (10.06)
same,UAS7 Change from baseline Median,[4],−9.00
same,UAS7 Mean (SD),[4],21.11 (10.03)
same,UAS7 Median,[4],18.20
same,UAS7 Percent change from baseline Mean (SD),[4],−33.33 (28.49) %
same,UAS7 Percent change from baseline Median,[4],−36.11%
same,UAS7 Change from baseline Mean (SD),[5],−24.00 (NC)
same,UAS7 Change from baseline Median,[5],−24.00
same,UAS7 Mean (SD),[5],17.00 (NC)
same,UAS7 Median,[5],17.00
same,UAS7 Percent change from baseline Mean (SD),[5],−58.54 (NC) %
same,UAS7 Percent change from baseline Median,[5],−58.54%
same,"Non-responder, UAS7 reduction from baseline of 10 points or more",[6],22 (59.5) n (%)
same,"OR for rilzabrutinib vs. placebo, UAS7 reduction of 10 points or more",[6],1.096
same,"RRD (%) for rilzabrutinib vs. placebo, UAS7 reduction of 10 points or more",[6],2.2 %
same,"Responder, UAS7 reduction from baseline of 10 points or more",[6],15 (40.5) n (%)
same,"Non-responder, UAS7 reduction from baseline of 10 points or more",[7],16 (39.0) n (%)
same,"OR for rilzabrutinib vs. placebo, UAS7 reduction of 10 points or more",[7],2.334
same,"RRD (%) for rilzabrutinib vs. placebo, UAS7 reduction of 10 points or more",[7],18.7 %
same,"Responder, UAS7 reduction from baseline of 10 points or more",[7],25 (61.0) n (%)
same,UAS7 Change from baseline Median,[8],−15.00
same,UAS7 Mean (SD),[8],13.54 (9.34)
same,UAS7 Median,[8],14.00
same,UAS7 Percent change from baseline Mean (SD),[8],−54.22 (30.59) %
same,UAS7 Percent change from baseline Median,[8],−52.50%
same,UAS7 Change from baseline Mean (SD),[9],−20.86 (14.89)
same,UAS7 Change from baseline Median,[9],−16.00
same,UAS7 Mean (SD),[9],12.17 (10.21)
same,UAS7 Percent change from baseline Mean (SD),[9],−58.95 (28.44) %
same,UAS7 Percent change from baseline Median,[9],−51.29%
same,"Non-responder, UAS7 reduction from baseline of 10 points or more",[10],13 (37.1) n (%)
same,"OR for rilzabrutinib vs. placebo, UAS7 reduction of 10 points or more",[10],2.765
same,"RRD (%) for rilzabrutinib vs. placebo, UAS7 reduction of 10 points or more",[10],22.3 %
same,"Responder, UAS7 reduction from baseline of 10 points or more",[10],22 (62.9) n (%)
same,"Non-responder, UAS7 reduction from baseline of 10 points or more",[11],17 (41.5) n (%)
same,"OR for rilzabrutinib vs. placebo, UAS7 reduction of 10 points or more",[11],1.985
same,"RRD (%) for rilzabrutinib vs. placebo, UAS7 reduction of 10 points or more",[11],17.5 %
same,"Responder, UAS7 reduction from baseline of 10 points or more",[11],24 (58.5) n (%)
same,UAS7 Change from baseline Mean (SD),[12],−15.64 (11.76)
same,UAS7 Change from baseline Median,[12],−16.00
same,UAS7 Mean (SD),[12],13.98 (13.06)
same,UAS7 Median,[12],10.00
same,UAS7 Percent change from baseline Mean (SD),[12],−54.37 (38.23) %
same,UAS7 Percent change from baseline Median,[12],−64.29%
same,UAS7 Change from baseline Mean (SD),[13],−21.00 (19.13)
same,UAS7 Change from baseline Median,[13],−26.00
same,UAS7 Mean (SD),[13],11.00 (15.67)
same,UAS7 Median,[13],1.00
same,UAS7 Percent change from baseline Mean (SD),[13],−61.16 (51.62) %
same,UAS7 Percent change from baseline Median,[13],−96.30%
same,"Non-responder, UAS7 reduction from baseline of 10 points or more",[14],14 (40.0) n (%)
same,"OR for rilzabrutinib vs. placebo, UAS7 reduction of 10 points or more",[14],2.484
